These results are taken from PMC3424241, “The Octadecaneuropeptide ODN Protects Astrocytes against Hydrogen Peroxide-Induced Apoptosis via a PKA/MAPK-Dependent Mechanism” (PLoS ONE, 2012).

The test system of one assay is ERK1 and ERK2. The experiment in a line: ERK phosphorylation, Western blot. The format is cell-based, rat. The method, then: (§1) Secondary cultures of rat cortical astrocytes were prepared as previously described [64]with minor modifications. Briefly, cerebral hemispheres from newborn Wistar rats were collected in DMEM/F12 (2∶1; v/v) culture medium supplemented with 2 mM L-glutamine, 1‰ insulin, 5 mM HEPES, 0.4% glucose and 1% of the antibiotic-antimycotic solution. The tissues were dissociated mechanically with a syringe equipped with a 1-mm gauge needle, and filtered through a 100-µm sieve (Falcon, Franklin Lakes, NJ, USA). Dissociated cells were resuspended in culture medium supplemented with 10% FBS, plated in 175-cm^2 flasks (Greiner Bio-one GmbH, Frickenhausen, Germany) and incubated at 37°C in a 5% CO2/[…] atmosphere. When cultures were confluent, astrocytes were isolated by shaking overnight the flasks on an orbital agitator. Adhesive cells were detached by trypsination and preplated for 5 min to discard contaminating microglial cells. Then, the non-adhering astrocytes were harvested and plated on 35-mm hydrophilic surface Petri dishes at a density of 3×10^5 cells/ml. For measurement of cell survival, caspase-3 activity and mitochondrial activity, cells were plated in hydrophilic surface 24-well plates at a density of 8×10^4 cells/ml. The cells were incubated at 37°C in a humid atmosphere (5% CO2). After 5 days (DIV5), more than 99% of the cells were labeled with antibodies against glial fibrillary acidic protein [65]. All experiments were performed on 5- to 7-day-old secondary cultures.
Cultured cells were incubated at 37°C for 1 h with fresh serum-free medium in the absence or presence of test substances. Total proteins were extracted with lysis buffer containing 1% Triton X-100, 50 mM Tris/HCl and 10 mM EDTA. After centrifugation (20,000 g, 4°C, 15 min), the proteins contained in the supernatant were precipitated by addition of ice-cold 10% TCA. The extract was centrifuged (15,000 g, 4°C, 15 min) and washed three times with alcohol/ether. The pellet was denatured (100°C, 5 min) in 50 mM Tris/HCl (pH 7.5) containing 20% glycerol, 0.7 M 2-mercaptoethanol, 0.004% bromophenol blue and 3% SDS, and then migrated on a 10% SDS-polyacrylamide gel electrophoresis (PAGE). After separation, proteins were electrically transferred onto nitrocellulose membrane (Amersham, Les Ulis, France). […] Signal was quantified using an image analysis system (Biocom, Les Ulis, France).

For a further assay, the system named is cultured rat astrocytes. The note with it: ODN 0.1 nM, 300 µM H2O2; cited from earlier work. The procedure:
In order to determine the receptor involved in the protective effect of ODN, we have first examined the dose- and the time-course effect of the peptide on detrimental action of H2O2. The protective action of ODN was concentration-dependent for doses ranging from 1 fM to 0.1 nM (Figure 1A). […] The protectiv ...

Assay [1] deals with mitochondria of cultured astrocytes. Nature of the assay: Mitochondrial membrane potential, JC-1 probe. The format is cell-based, rat. The note with it: ODN 0.1 nM, 10 min pretreatment, then 1 h 300 µM H2O2. The procedure: as §1, with “For measurement of cell survival, caspase-3 activity and mitochondrial activity, cells were plated in hydrophilic surface 24-well plates at a density of 8×10^4 cells/ml. The cells were incubated at 37°C in a humid atmosphere (5% CO2). After 5 days (DIV5), more than 99% of the cells were labeled with antibodies against glial fibrillary acidic protein [65]. All experiments were performed on 5- to 7-day-old secondary cultures.” left out
Cells seeded into 24-well plates were subjected to various treatments, incubated in the presence of the JC-1 probe (3 µl/ml) at 37°C for 15 min and then washed twice with PBS. Mitochondrial integrity was assessed with the JC-1 probe. […]

Assay [2] has as its system cAMP formation in astroglial cells (adenylyl cyclase). Nature of the assay: cAMP production, radioimmunoassay. The format is cell-based, rat. The note with it: ODN 10 pM; 0.1 mM IBMX, 10 min incubation; p<0.001. The method, then: as §1, with “For measurement of cell survival, caspase-3 activity and mitochondrial activity, cells were plated in hydrophilic surface 24-well plates at a density of 8×10^4 cells/ml. The cells were incubated at 37°C in a humid atmosphere (5% CO2). After 5 days (DIV5), more than 99% of the cells were labeled with antibodies against glial fibrillary acidic protein [65]. All experiments were performed on 5- to 7-day-old secondary cultures.” left out
Cultured cells were pre-incubated for 30 min in serum-free medium containing 0.1 mM IBMX to inhibit phosphodiesterases, and then incubated in the same solution, in the presence or absence of test substances. […] The concentration of cAMP was measured by using a cAMP RIA kit. […]
In general terms: Cyclic AMP is a second messenger, typically raised through Gs and lowered through Gi signalling.

The subject of another assay is Bcl-2. The experiment in a line: Bcl-2 mRNA level, quantitative RT-PCR. The format is cell-based, rat. The note with it: ODN 0.1 nM. The method, then: as §1, with “For measurement of cell survival, caspase-3 activity and mitochondrial activity, cells were plated in hydrophilic surface 24-well plates at a density of 8×10^4 cells/ml. The cells were incubated at 37°C in a humid atmosphere (5% CO2). After 5 days (DIV5), more than 99% of the cells were labeled with antibodies against glial fibrillary acidic protein [65]. All experiments were performed on 5- to 7-day-old secondary cultures.” left out
Cultured cells were incubated at 37°C for 1 h with fresh serum-free medium in the absence or presence of test substances. […] The amount of Bax and Bcl-2 cDNA in each sample was calculated by the comparative threshold cycle (Ct) method and expressed as 2^exp(−ΔΔCt) using glyceraldehyde-3-phosphate dehydrogenase as an internal control.

Take “ODN: octadecaneuropeptide, endozepine derived from diazepam-binding inhibitor; endogenous ligand of central-type benzodiazepine and metabotropic receptors; synthesized by Fmoc procedure (QATVGDVNTDRPGLLDLK; Octadecaneuropeptide; UniProt P11030 34-51, looked up)”: the ERK phosphorylation in the assay with ERK1 and ERK2 (ODN 0.1 nM, after 60 min of treatment, percentages of control) is 206%. Moreover, the “time to detectable increase of ERK phosphorylation” value with ERK1 and ERK2 (ODN 0.1 nM, time-course) is recorded as no more than 20 min. Besides, the “effect on ERK phosphorylation” value in the assay on ERK1 and ERK2 (graded ODN 1 fM to 0.1 nM, 1 h, Western blot) is on record as “concentration-related stimulation of ERK phosphorylation”. For the same substance, in the assay with cultured rat astrocytes, the “effect on H2O2-induced astrocyte cell death” value is “able to reverse the effect of 300 µM H2O2-induced astrocyte cell death”. In addition, in assay [1], the “effect on H2O2-induced alteration of the mitochondrial membrane potential” value is “suppressed this deleterious effect of H2O2 on the mitochondrial membrane potential”. Besides, the “maximum stimulation of cAMP formation” value in assay [2] is listed as 179 % over control. In addition, in the assay with Bcl-2 (10 min pre-incubation, 1 h 300 µM H2O2), the “effect on H2O2-induced inhibition of Bcl-2 expression” value is “suppressed the inhibitory effect of H2O2 on Bcl-2 expression”. Also, the “effect on Bcl-2 mRNA levels, peptide alone” value in the assay with Bcl-2 (1 h, RT-PCR, 6 wells from three cultures) is “induced an increase of Bcl-2 mRNA levels by itself”.
